Consider three compounds from US20220000969A1, “COMBINATIONS OF LYSOBACTIN AND AMINOGLYCOSIDES AGAINST DISEASES CAUSED BY GRAM-POSITIVE AND GRAM-NEGATIVE BACTERIA IN NON-HUMAN ANIMALS” (Bayer Animal Health GmbH, priority 2017, published 2022).

Starred links: 1 amine or outer side, 2 acyl side, 3 side chain; linkers in the order of their positions; H or OH if unused. Positions of bridges follow the written chain, without caps; N, C: chain ends. Non-standard residues stand in square brackets, D forms with d. Residues, ends and D or L forms follow the SMILES beside them. Phe(3R-OH) = O=C([C@@H](N[*:1])[C@H](O[*:3])c1ccccc1)[*:2]; Asn(3S-OH) = NC(=O)[C@@H](O)[C@H](N)C(=O)O; Leu(3R-OH) = CC(C)[C@@H](O)[C@H](N)C(=O)O; aThr = C[C@H](O)[C@H](N)C(=O)O

For test [1], the system named is S. aureus. As to the kind of experiment: resistance development during serial passaging. The class given is cell-based, Staphylococcus aureus. The following applies: serial passaging at sub-MIC concentrations over 33 days. Here is the method: (§1) The appearance of MIC changes during constant exposure of bacteria to sub-MIC concentrations of lysobactin was assessed by serial passaging experiments. On the first day the MICs of S. aureus and S. uberis were assessed by microbroth dilution MIC methodology as described by the Clinical and Laboratory Standards Institute (CLSI). Each day for the following 33 consecutive days, bacteria from the well containing the highest concentrations allowing full growth were collected and used to inoculate new 96-well plates and to assess the MIC during constant exposure to lysobactin. The MIC obtained on each day was plotted over time. Rifampicin, which is known to result in quick changes of the MIC, was used as positive control.

Test [2] concerns Streptococcus uberis (ATCC 27958). As to the kind of experiment: acute mouse mastitis model with S. uberis (example 14). Conditions: paraffin formulation, 18 h after infection. The class given is in vivo, lactating CD-1 mice. Here is the method: Twenty-three lactating CD-1 mice were experimentally infected 10-15 days after birth of the offspring with the mastitis pathogen Streptococcus uberis (ATCC 27958) on the left and right fourth mammary gland. Four hours after infection the animals were treated intrammarily with the test items. The study comprised four treatment groups with four mice each and a control group with seven mice. The mice of the treatment groups received paraffin formulations of lysobactin at 15 μg/gland or neomycin trisulfate at 1600 μg/gland, or two combinations of both with lysobactin at 15 μg plus neomycin trisulfate at 800 μg or 1600 μg per gland. Eighteen hours after infection the mice were killed and the mammary glands were removed and bacterial CFU were evaluated microbiologically.

The test system of test [3] is Staphylococcus aureus. Put plainly: Staphylococcus aureus acute mouse mastitis model. The class given is in vivo, lactating CD-1 mice. As to the method: The efficacy of lysobactin (formulated in a hydrogel at pH 4.7) was tested in a Staphylococcus aureus acute mouse mastitis model established at the University of Sherbrooke, Canada (Brouillette et al, Vet. Microbiol. (2004) 4:253-262), that is hereby incorporated by reference. Both the abdominal mammary glands (L4 and R4) of lactating CD-1 mice were intramammarily infected with 100 CFU (colony forming units) of S. aureus. The mice were treated intramammarily with lysobactin four hours after infection. Each treatment group contained at least 3 mice (6 quarters), 14 hours later (18 hours after inoculation) mice were sacrificed, mammary glands were harvested and the CFU content evaluated by plating 10-fold serial dilutions of mammary gland homogenates. The CFU content was expressed as log10 count. The detection limit was 200 CFU/g of gland. Glands with less than 200 CFU/g were regarded as cleared. The efficacy of lysobactin and neomycin trisulfate, either alone or in combination, was tested in a Staphylococcus aureus acute mouse mastitis model established at the University of Sherbrooke, Canada (Brouillette et al, Vet. Microbiol. (2004) 4:253-262), as described in example 5. Samples were formulated in paraffin.

The test system of test [4] is Staphylococcus aureus ATCC 29740. As to the kind of experiment: in vitro kill kinetics of lysobactin alone in milk. Conditions: lysobactin 4-64 μg/mL, at 24 h. The class given is cell-based. As to the method:
(§2) In order to assess the ability of lysobactin to kill bacteria in milk, flasks containing different concentrations of lysobactin in store-bought full-fat milk were inoculated with 1-2×10^6 colony forming units/ml of a representative strain of either Staphyloccus aureus or Streptococcus uberis. The flasks were incubated for 24-48 hours in a shaking water bath at 35+/−2° C., and viable bacterial counts in each flask were determined at several time-points by diluting and plating samples on agar plates. A reduction of the number of viable bacteria in the initial inoculum by at least 99.9% is defined as bactericidal activity.
(§3) The kill kinetics of lysobactin against Staphylococcus aureus ATCC 29740 and Streptococcus uberis ATCC 27958 in milk were determined for concentrations of lysobactin of 4, 8, 16, 32 and 64 μg/mL. Results are depicted in FIG. 1 (CFU: colony forming units). A cidality at 24 h and 48 h, respectively, can be postulated for S. aureus and S. uberis.

In test [5] the test system is Streptococcus uberis ATCC 27958. As to the kind of experiment: in vitro kill kinetics of lysobactin alone in milk. Type of test: cell-based. The following applies: lysobactin 4-64 μg/mL, at 48 h. Here is the method: as §2, §3
Test [6] relates to S. uberis. As to the kind of experiment: resistance development during serial passaging. The class given is cell-based, Streptococcus uberis. Conditions: serial passaging at sub-MIC concentrations over 33 days. As to the method: as §1
Test [7] deals with Staphylococcus aureus. As to the kind of experiment: dairy cow udder infection model with S. aureus (example 15). The class given is in vivo, lactating dairy cows. Conditions: for microbiological cure rate: miglyol based suspension, two times; for SCC recovery rate: counts below 200.000 cells per mL. From the text: Fifteen healthy lactating dairy cows were experimentally infected with the mastitis pathogen Staphylococcus aureus on all four udder quarters.
Additionally a fourth group of udder quarters received miglyol as negative control. Treatments were randomly assigned to 60 udder quarters in total. Only udder quarters that were bacteriologically positive for the challenge organism immediately prior to treatment (n=49) were eligible for assessment of microbiological and clinical cure. The diseased quarters were treated with these intramammary formulations two times with an interval of 24 hours in between. Udders were clinically examined and milk samples were taken before treatment and several times after that until three weeks after the second administration by study personnel blinded to treatment.
Milk was inspected visually for deviation in its consistency and samples were evaluated for presence of the challenge organism and for somatic cell count to confirm the diagnosis mastitis. Diseased udder quarters were considered microbiologically cured when Staphylococcus aureus found in milk samples shortly before treatment could not be isolated from any milk sample taken within the time period between the third and the twenty-first day after the second treatment. Clinical cure was achieved when the local symptoms of mastitis had completely disappeared, and recovery of somatic cell counts (SCC) as parameter of udder inflammation was attained when all counts remained below 200.000 cells per mL of milk in the period mentioned above.

Test [8] relates to E. coli P4:032. As to the kind of experiment: in vitro kill kinetics of combinations in milk (synergy). The class given is cell-based. Conditions: after 8 h, 32 μg/ml neomycin alone. Here is the method: The flasks were incubated for 24-48 hours in a shaking water bath at 35+/−2° C., and viable bacterial counts in each flask were determined at several time-points by diluting and plating samples on agar plates.
The kill kinetics of lysobactin and neomycin, either alone or in combination, against E. coli P4:032 in milk were determined for concentration ratio of lysobactin:neomycin of […] (256 μg/ml lysobactin and 32 μg/ml neomycin).

[9] abbreviates: Day 3 after second treatment, lysobactin 50 mg.
[10] abbreviates: Day 21 after second treatment, lysobactin 50 mg.
The mark [11] stands for this setting: Day 3 after second treatment, neomycin trisulfate 400 mg.
Where [12] appears, read: Day 21 after second treatment, neomycin trisulfate 400 mg.

In the case of `CC[C@H](C)[C@@H]1NC(=O)[C@@H](CCCNC(=N)N)NC(=O)[C@H](CC(C)C)NC(=O)[C@H]([C@H](O)C(C)C)NC(=O)[C@@H](NC(=O)[C@H](CC(C)C)NC(=O)[C@H](N)CC(C)C)[C@@H](c2ccccc2)OC(=O)[C@H](CO)NC(=O)[C@H]([C@H](O)C(N)=O)NC(=O)CNC(=O)[C@H]([C@H](C)O)NC1=O` [lysobactin] (H-[dL]L[Phe(3R-OH)][Leu(3R-OH)]L[dR]I[aThr]G[Asn(3S-OH)]S; ester 3-C), the “MIC change during constant exposure” value in test [1] and in test [6] was “remain constant” throughout. For the same compound, the “reduction of mean CFU content” value in test [2] (15 μg lysobactin per gland) is “ca. 2.6 log10”. Moreover, the “reduction of median CFU content” value was “ca. 2.7 log10” in test [3] (50 μg lysobactin intramammary, formulated in paraffin) and “ca. 4 log10” in test [3] (50 μg lysobactin intramammary, hydrogel pH 4.7, 4 h after infection, glands 18 h after inoculation). In addition, the “elimination of infection from glands” value in test [3] (400 μg lysobactin intramammary, hydrogel pH 4.7, cleared = less than 200 CFU/g) is reported as “eliminates the infection from all infected glands”. Further, the “cidality (reduction of viable bacteria by at least 99.9%)” value in test [4] and in test [5] was “cidality” throughout. Also, the “local clinical cure rate” value in test [7] (setting [9]) and in test [7] (setting [10]) was 71% in each case. Besides, the values for the microbiological cure rate in test [7] (setting [9]) and in test [7] (setting [10]) were 71% and 14%, respectively. Further, the SCC recovery rate in test [7] (setting [9]) is given as 35%; in test [7] (setting [10]) it was 36%.
`NC[C@@H]1O[C@H](O[C@@H]2[C@@H](CO)OC(O[C@@H]3[C@@H](O)[C@H](N)C[C@H](N)[C@H]3OC3O[C@H](CN)[C@@H](O)[C@H](O)[C@H]3N)[C@@H]2O)[C@H](N)[C@@H](O)[C@@H]1O` (some centres unmarked) [neomycin trisulfate, reference compound]: the “reduction of mean CFU content” value in test [2] (1600 μg neomycin trisulfate per gland) was ~1.5 log10. Also, in test [3] (1600 μg neomycin trisulfate intramammary, formulated in paraffin), the “reduction of median CFU content” value is ~2.5 log10. For the same compound, in test [7] (setting [11]), the “local clinical cure rate” value came out at 67%, the microbiological cure rate worked out at 100% and the SCC recovery rate is reported as 17%. Besides, in test [7] (setting [12]), the “local clinical cure rate” value was determined as 100%, the microbiological cure rate was determined as 42% and the SCC recovery rate turned out to be 50%.
On to neomycin, for which the bacterial cell count entry in test [8] was “below the detection limit”.
